From ChEMBL document CHEMBL2321861, “Multifunctional radical quenchers for the treatment of mitochondrial dysfunction” (ACS Med Chem Lett, 2013)

How the values were obtained:
[1] = Antioxidant activity assessed as suppression of lipid peroxidation at 5 uM relative to control; format: functional
[2] = Antioxidant activity assessed as suppression of lipid peroxidation at 1 uM relative to control; format: functional
[3] = Inhibition of NADH oxidase (unknown origin) at 5 uM relative to control; settings: Homo sapiens
[4] = Inhibition of NADH oxidase (unknown origin) at 1 uM relative to control; settings: Homo sapiens

| inhibition [3] [%] | inhibition [4] [%] | SMILES | Activity [1] [%] | Activity [2] [%] |
| --- | --- | --- | --- | --- |
|  |  | CCCCCCCCCCc1c(C)n(O)c(C)c(Cl)c1=O | 0 | 0 |
| 76.7 | 92.9 | CCCCCCCc1c(C)n(O)c(C)c(N)c1=O | 9.6 | 14 |
|  |  | CCCCCCCc1c(C)n(O)c(C)cc1=O | 0 | 0 |
|  |  | CCCCCCCCCCCCCCCCc1c(C)n(O)c(C)c(Br)c1=O | 15 | 7 |
|  |  | CCCCCCCCCCc1c(C)n(O)c(C)c(Br)c1=O | 0 | 0 |
|  |  | CCCCCCCCCCCCCCCCc1c(C)n(O)c(C)cc1=O | 20 | 10 |
| 44.5 | 74.5 | CCCCCCCc1c(C)n(O)c(C)c(C(C)=O)c1=O | 2.2 | 11 |
|  |  | CCCCCCCc1c(C)n(O)c(C)c(Cl)c1=O | 0 | 0 |
| 20.7 | 29.7 | C=Cc1c(C)n(O)c(C)c(CCCCCCC)c1=O | 0 | 0 |
|  |  | CCCCCCCc1c(C)n(O)c(C)c(Br)c1=O | 0 | 0 |
| 12 | 20.1 | C=Cc1c(C)n(O)c(C)c(CCCCCCCCCCCCCCCC)c1=O | 13 | 7 |
|  |  | CCCCCCCCCCc1c(C)n(O)c(C)cc1=O | 0 | 0 |
| 12.7 | 17.1 | CCCCCCCCCCCCCCCCc1c(C)n(O)c(C)c(N)c1=O | 94 | 18 |
